Measured values published in patent publication US8252832B2, “Kinesin inhibitors as cancer therapeutics” (Novartis AG, priority 2007, dated 2012).
Like-named read-outs stand apart in the source and are kept apart here.

Tests used:
[1] = tested on: HS 578T; test: CellTiter-Glo, NCI60 panel; type: cell-based; conditions: Breast; for GI50: Homo sapiens
From the text: (§1) Identification of tumor types that are the most sensitive to the KSP inhibitors of the present invention can be accomplished using an unbiased approach that uses several cell-based assays. The assays chosen were as follows: • CellTiter-Glo®. This is an assay designed to measure ATP concentration in a cell culture, and can be correlated to cell number. Briefly CellTiter-Glo® (Promega Corporation) is a homogeneous method using the single CellTiter-Glo® reagent to detect ATP wherein ATP in the assay drives the activity of a thermostable luciferase to create a luminescent signal which can then be measured and correlated with the number of viable cells. Briefly, for adherent cells, 1,000 to 5,000 cells/well were plated in 96-well plates (100 μl/well) and let to adhere for 24 hours before being treated with drug. For non-adherent cells, 1,000 to 10,000 cells/well were plated in 96-well plates (100 μl/well) and immediately treated with drug. Drug dilutions were prepared in DMSO at 1000 times the final concentration. These dilutions were then diluted 1/100 in growth media before being added to the cells (11 μl/well) to achieve the desired final concentration. After 48 h in a 37° C. tissue culture incubator, the plates were processed for the CellTiter-Glo®assay according to the manufacturer's instructions. Protocol for a 72 hour cell proliferation assay: The 72 hour assay was performed the same way as the 48 hour assay except for the following modifications: For adherent cells, 500 to 5,000 cells/well were plated in 96-well plates (90 μl/well cell growth media) and left to adhere for 24 hours before being treated with drug. For non-adherent cells, 1,000 to 10,000 cells/well were plated in 96-well plates (90 μl/well cell growth media) and immediately treated with drug. Data values presented represent the concentration of test compound required for a 50% reduction in growth. • LDH release. The Cytotoxicity Detection KitPLUS (LDH) assay (Roche Diagnostics, Manheim, Germany) measures the amount of LDH released in the media by dying cells; LDH catalyzes the conversion of lactate into pyruvate. The enzymatic reaction is coupled to a chemical reaction that uses a tetrazolium salt to form a formazan that is red and can be detected by its absorbance at 490 nm. This assay measures the amount of cell death after drug treatment. Cells were plated at 10,000 cells/well in 96-well plates (100 μl/well). Adherent cells were let to adhere for 24 hours before being treated with drug, whereas non-adherent cells were immediately treated with drug. Drug dilutions were prepared in DMSO at 1000 times the final concentration. These dilutions were then diluted 1/100 in growth media before being added to the cells (11 μl/well) to achieve the desired final concentration. After 48 h in a 37° C. tissue culture incubator, the plates were processed for the Cytotoxicity Detection KitPLUS (LDH) assay according to the manufacturer's instructions. The media only values were subtracted from all the data points before analysis. Data values presented correspond to the compound concentration wherein LDH output is at half maximal level. • Caspase-Glo® 3/7. The Caspase-Glo® 3/7 Assay (Promega Corporation) is a homogeneous luminescent assay that measures caspase-3/7 activities. The assay provides a proluminescent caspase-3/7 DEVD-aminoluciferin substrate and a thermostable luciferase in a reagent optimized for caspase-3/7 activity, luciferase activity and cell lysis. Adding the single Caspase-Glo® 3/7 Reagent results in cell lysis, followed by caspase cleavage of the substrate. This liberates free aminoluciferin, which is consumed by the luciferase, generating a luminescent signal. The signal is proportional to caspase-3/7 activity. Data values presented correspond to the compound concentration wherein caspase 3/7 activity is at half maximal level. […]

[2] = tested on: SNB-19; test: CellTiter-Glo, NCI60 panel; type: cell-based; conditions: CNS; for GI50: Homo sapiens
From the text: as §1

[3] = tested on: EKVX; test: CellTiter-Glo, NCI60 panel; type: cell-based; conditions: NSCL; for GI50: Homo sapiens
From the text: as §1

[4] = tested on: KM12; test: CellTiter-Glo, NCI60 panel; type: cell-based; conditions: Colon; for GI50: Homo sapiens
From the text: as §1

[5] = tested on: SF-295; test: CellTiter-Glo, NCI60 panel; type: cell-based; conditions: CNS; for GI50: Homo sapiens
From the text: as §1

[6] = tested on: ACHN; test: CellTiter-Glo, NCI60 panel; type: cell-based; conditions: Renal; for GI50: Homo sapiens
From the text: as §1

[7] = tested on: HCC-2998; test: CellTiter-Glo, NCI60 panel; type: cell-based; conditions: Colon; for GI50: Homo sapiens
From the text: as §1

[8] = tested on: SK-OV-3; test: CellTiter-Glo, NCI60 panel; type: cell-based; conditions: Ovarian; for GI50: Homo sapiens
From the text: as §1

[9] = tested on: IGROV1; test: CellTiter-Glo, NCI60 panel; type: cell-based; conditions: for GI50: Homo sapiens, IGROV-1, Ovarian
From the text: as §1

[10] = KMS-11-luc disseminated disease model, host response; type: in vivo, mouse; conditions: q4d × 3, i.v.
Experimental: Experiments were performed using immunodeficient SCID-Beige female mice approximately 7-8 weeks old (Charles River Laboratories, Wilmington, Mass.). […] Routine animal care and assurance of welfare were as described above. […] Doses were adjusted to each animal's body weight. […] Approximately 10 minutes prior to imaging, mice were injected i.p. with 150 mg/kg luciferin (Xenogen Corporation, Alameda, Calif.), followed by anesthetization with isoflurane. Photon emission was measured using a charge coupled device camera in the IVIS imaging system (Xenogen Corporation). Briefly, a gray-scale image of the mice was captured, followed by an overlay of a bioluminescence map representing the spatial distribution of photons detected from cleaved luciferin in the cancer cells expressing luciferase. Signal intensity was quantified using a customized version of the IGOR Pro version 4.09A Software (WaveMetrics, Inc., Lake Oswego, Oreg.) called Living Image version 2.50.2 (Xenogen). The sum of all detected photon counts from the right+left legs were determined. Bioluminescence of cancer cells in the animals was measured by imaging on designated days until the first mice developed hind limb paralysis due to disease burden, the main end point for when to humanely euthanize mice. The day of euthanasia for each mouse was recorded, and the remaining percentage of mice surviving was plotted over time (Kaplan-Meier survival analysis). P values were calculated using the log-rank test (GraphPad Prism 4.0 software) to assess differences between treated and control groups (p<0.05 was considered significant). […] Data analysis was as described above.

[11] = GI50 in nM, read-out: Log(GI50) (converted)

## CC(C)(C)[C@H](c1nc(-c2cc(F)ccc2F)cn1Cc1ccccc1)N(CC[C@H](N)CF)C(=O)CO [Compound IIa]
[1]
  Differential vs mean Log(GI50): 0.989
[1]; [11]
  GI50: 0.22 nM
[1]; read-out: GI50
  GI50: 0.22 nM
[2]
  Differential vs mean Log(GI50): −0.669
[2]; [11]
  GI50: 10 nM
[2]; read-out: GI50
  GI50: 10 nM
[3]; [11]
  GI50: 10 nM
[3]; read-out: GI50
  GI50: 10 nM
[3]
  Differential vs mean Log(GI50): −0.669
[4]
  Differential vs mean Log(GI50): 0.705
[4]; [11]
  GI50: 0.423 nM
[4]; read-out: GI50
  GI50: 0.423 nM
[5]
  Differential vs mean Log(GI50): 1.122
[5]; [11]
  GI50: 0.162 nM
[5]; read-out: GI50
  GI50: 0.162 nM
[6]; [11]
  GI50: 10 nM
[6]; read-out: GI50
  GI50: 10 nM
[6]
  Differential vs mean Log(GI50): −0.669
[7]
  Differential vs mean Log(GI50): 0.547
[7]; [11]
  GI50: 0.608 nM
[7]; read-out: GI50
  GI50: 0.608 nM
[8]; [11]
  GI50: 0.421 nM
[8]; read-out: GI50
  GI50: 0.421 nM
[8]
  Differential vs mean Log(GI50): 0.707
[9]; [11]
  GI50: 10 nM
[9]; read-out: GI50
  GI50: 10 nM
[9]; Ovarian
  Differential vs mean Log(GI50): −0.669
[10]; 0.25 mg/kg, D14
  Max. Δ body weight (Day): 2.1 ± 1.23 g
  Max. Δ body weight (Day) (%): 5.0 ± 2.0%
[10]; 0.5 mg/kg, D14
  Max. Δ body weight (Day): 2.5 ± 0.23 g
  Max. Δ body weight (Day) (%): 6.7 ± 1.1%
[10]; 1 mg/kg, D13
  Max. Δ body weight (Day): -0.74 ± 0.75 g
  Max. Δ body weight (Day) (%): −3.3 ± 4.0%
